{
  "source": "paper PMC9530963",
  "about": "“A cathelicidin antimicrobial peptide from Hydrophis cyanocinctus inhibits Zika virus infection by downregulating expression of a viral entry factor” (The Journal of Biological Chemistry, 2022)",
  "key": {"[1]": {"conditions": "cited from earlier work", "source_text": "Antimicrobial peptides (AMPs), also called host defense peptides, are a group of relatively small cationic peptides. They are an important part of the innate immune system and play an important role in fighting against bacterial infection ([26]). Recently, more and more studies have shown that AMPs can also exert antiviral effects by inhibiting virus adsorption, disrupting virus envelope, and regulating host antiviral immune response ([27], [28], [29])."}, "ZIKV": {"test_system": "ZIKV", "test": "Antiviral activity of Hc-CATH against ZIKV in vitro (peptide present during and after infection)", "format": "cell-based, ZIKV strain PRVABC59", "method": "Figure 1 Hc-CATH inhibits ZIKV infection in vitro. A, schematic diagram of B–H. B–H, protective effect of Hc-CATH on ZIKV infection in vitro. Vero cells were seeded in 24-well plates (5 × 10^4 cells/well). Cells were infected with ZIKV (MOI = 1), and Hc-CATH (1.25, 2.5, and 5 μM), AC5 (2.5 and 5 μM), LL-37 (2.5 μM), or same volume of PBS (peptide solvent) was added and incubated at 37 °C for 2 h. Then the cells were washed with PBS and transferred with fresh DMEM containing 2% FBS and the same concentration of peptides. After culture at 37 °C for 48 h, image of ZIKV-caused cytopathic effect was taken (B, the scale bar represents 200 μm), the percentage of ZIKV-caused cytopathic effect was quantified by CCK-8 (C), intracellular ZIKV RNA (D), NS3 protein (E, upper panel: immunoblots, lower panel: ratios analyzed by ImageJ), E protein (F, the scale bar represents 50 μm), and extracellular ZIKV titer (G and H) was tested by qPCR, Western blot, immunofluorescence staining, and plaque-forming assay, respectively. The raw data files used in the creation of G are presented in Fig. S3. ∗p < 0.05, ∗∗p < 0.01, ∗∗∗p < 0.001, ns, not significant.\nVero cells were seeded in 24-well plates (5 × 10^4 cells/well). After cells were adhered to plates, cells were incubated with ZIKV (multiplicity of infection [MOI] = 1) in the presence of noncytotoxic concentration of Hc-CATH, AC5 (positive control), LL-37 (positive control), or PBS (solvent of peptide). After incubation at 37 °C for 2 h, the culture media were removed, cells were washed with PBS and transferred with fresh culture media containing 2% FBS, and Hc-CATH, AC5, LL-37, or PBS was supplemented to each well. After incubation at 37 °C for 48 h, cytopathic effect was observed by microscopy, and Cell Counting Kit-8 was applied to determine the percent of cytopathic effect. The percent of cytopathic effect was calculated as (Asham –Atreatment)/Asham × 100 (where Asham represents the absorbance of uninfected cells, Atreatment represents the absorbance of PBS- or peptide-treated cells post ZIKV infection). The intracellular ZIKV RNA, NS3 protein, E protein, and extracellular ZIKV titer were tested by qPCR, WB, IF, and plaque-forming assay, respectively ([28])."}, "AXL": {"test_system": "AXL", "test": "AXL level in A549 cells (Western blot, immunofluorescence)", "format": "cell-based, Homo sapiens", "conditions": "1.25, 2.5, and 5 μM, 24 h, with and without ZIKV challenge", "method": "Figure 4 Hc-CATH downregulates AXL in A549 cell.A, schematic diagram of B and C. B, A549 cells were seeded in 24-well plates (5 × 10^4 cells/well) and cultured in DMEM containing 2% FBS. Hc-CATH (1.25, 2.5, and 5 μM) or same volume of PBS (peptide solvent) was added to cells and incubated at 37 °C for 24 h. The level of AXL was tested by Western blot. C, A549 cells were seeded in 8-well cover slip chambers (5 × 10^4 cells/well) and cultured in DMEM containing 2% FBS. Hc-CATH (1.25, 2.5, and 5 μM) or PBS was added to cells and incubated at 37 °C for 24 h. The level of AXL was tested by immunofluorescence staining. The scale bar represents 50 μm. D, schematic diagram of E and G. E and G, A549 cells were seeded in 24-well plates (5 × 10^4 cells/well) and cultured in DMEM containing 2% FBS. Hc-CATH (1.25, 2.5, and 5 μM) or PBS was added to cells and incubated at 37 °C for 2 h. Cells were washed with PBS and incubated with ZIKV (MOI = 1). After incubation at 37 °C for 2 h, cells were washed with PBS and cultured in DMEM containing 2% FBS.\nThe effect of Hc-CATH on AXL was further confirmed in A549 and U251 cells. A549 or U251 cells were incubated with Hc-CATH (1.25, 2.5, and 5 μM) or PBS at 37 °C for 24 h, and the level of AXL was detected by WB and IF, respectively. Upon ZIKV challenge, A549 or U251 cells were incubated with Hc-CATH (1.25, 2.5, and 5 μM) or PBS at 37 °C for 2 h. […]"}},
  "data": [
    {"sequence": "KFFKRLLKSVRRAVKKFRKKPRLIGLSTLL [Hc-CATH, cathelicidin antimicrobial peptide identified from the sea snake Hydrophis cyanocinctus]", "values": [
      {"measurement": "cytotoxicity", "setting": "[1]", "value": "low cytotoxicity"},
      {"measurement": "stability", "setting": "[1]", "value": "high stability"},
      {"measurement": "reduction of NS3 protein", "setting": "ZIKV; 5 μM, Vero cells, ZIKV MOI = 1, 48 h, Western blot, ImageJ", "value": "~67.4", "unit": "%"},
      {"measurement": "reduction of extracellular ZIKV particles", "setting": "ZIKV; 5 μM, Vero cells, ZIKV MOI = 1, 48 h, plaque-forming assay", "value": "~71.6", "unit": "%"},
      {"measurement": "reduction of intracellular ZIKV RNA", "setting": "ZIKV; 5 μM, Vero cells, ZIKV MOI = 1, 48 h, qPCR", "value": "~52.7", "unit": "%"},
      {"measurement": "reduction of ZIKV-caused cytopathic effect", "setting": "ZIKV; 5 μM, Vero cells, ZIKV MOI = 1, peptide during 2 h infection and 48 h culture, CCK-8", "value": "about 70.3%"},
      {"measurement": "anti-ZIKV efficacy in vitro compared with positive peptides", "setting": "ZIKV; Vero cells (Fig. 1)", "value": "weaker than that of AC5 and LL-37"},
      {"measurement": "level of AXL in A549 cells", "setting": "AXL", "value": "effectively decreased the level of AXL"}
    ]}
  ]
}
